system: HBV viral production from HepAD38 cells; assay: Activity of test compounds on viral production from HepAD38 cells (viral load by qPCR of HBV core sequence in supernatant); type: cell-based; conditions: Hepatitis B virus, 120 h, 5 days incubation, HBV DNA in supernatant by qPCR, top concentration 10 μM, read-out: Viral Load EC50 Activity range
Procedure: Assay Measuring Activity of Test Compounds on Viral Production from HepAD38 Cells
HepAD38 cells grown in a T-150 flask (Corning, cat #: 430825) with Growth Medium (DMEM/F12 (1:1) (Hyclone, cat #: SH30023.02), 1×Pen/Strep (Invitrogen, cat #: 15140-122), 10% FBS (Tissue Culture Biologics, cat #: 101), 250 μg/mL G418 (Alfa Aesar, cat #: J62671), 1 μg/mL Tetracycline (Teknova, cat #: T3320)) were detached with 0.25% trypsin-EDTA (Invitrogen, cat #: 25200-056). Tetracycline-free treatment medium (15 mL DMEM/F12 (1:1) 1× Pen/step, with 2% FBS, Tet-system approved (Clontech, cat #: 631106) were then added to mix, transferred into a 50 ml conical tube (Falcon, cat #: 21008-918) and spun at 1300 rpm for 5 min. Pelleted cells were then re-suspended/washed with 50 mL of 1×DPBS (Invitrogen, cat #: 14190-136) 2 times and 50 mL treatment medium twice. HepAD38 cells were then re-suspended with 10 mL of treatment medium, syringed and counted. Wells of 96-well clear bottom TC plate (Corning, cat #: 3904) were seeded at 50,000 cells/well in 180 μL of treatment medium, and 20 μL of either 10% DMSO (Sigma, cat #: D4540) as controls or a 10× solution of test compounds in 10% DMSO in treatment media was added for a final compound concentration starting at 10 μM, and plates were incubated in 5% CO2 incubator at 37° C. for 5 days.
Subsequently viral load production was assayed by quantitative PCR (qPCR) of the HBV core sequence. PCR reaction mixture containing forward primers HBV-f 5′-CTGTGCCTTGGGTGGCTTT-3′, which is SEQ ID NO 1, (IDT DNA), Reverse primers HBV-r 5′-[…]-3′, which is SEQ ID NO 2 (IDT DNA), Fluorescent TaqMan™ Probes HBV-probe 5′-FAM/AGCTCCAAA/ZEN/[…]/3IABkFQ-3′ (IDT DNA), which is SEQ ID NO 3, 10 μL/well of PerfeCTa® qPCR ToughMix® (Quanta Biosciences, Cat #: 95114-05K), and 6 µL/well of DEPC water (Alfa Aesar, cat #: J62087) was prepared. Four μL of supernatant was added to 16 μL of the reaction mixture in a qPCR plate (Applied Biosytems, Cat #: 4309849), sealed with a film (Applied Biosystems, Cat #: 4311971), centrifuged for a few seconds, and subsequently run on an Applied Biosystems VIIA7. The PCR mixture was incubated at 45° C. for 5 min, then 95° C. for 10 min, followed by 40 cycles of 10 seconds at 95° C. and 20 seconds at 60° C. Viral load was quantified against known HBV DNA standards by using ViiA™ 7 Software. Viral load in the supernatant from wells with treated cells were compared against viral load in supernatant from DMSO control wells (≥3 per plate). Cell viability assay was performed with CellTiter-Glo Luminescent Cell Viability Assay (Promega, cat #: G7573) with modification. Mixed appropriate amount of CellTiter-Glo (CTG) 1×DPBS in a 1:1 ratio, added 100 uL of the mixture to each well followed completely removal of all supernatant in each well without touching cell surface. Incubated the plate at room temperature for 10 min on an orbital shaker, and then read the plate with a plate reader (TECAN M1000 or Envision). EC50 or CC50 values were calculated through curve-fitting of the four-parameter nonlinear-logistic-regression model (GraphPad Prism or Dotmatics). CC50 values were all >10 μM.

| SMILES | EC50 [nM] |
| --- | --- |
| NC(=O)CN1C(C(=O)Nc2ccc(F)c(Cl)c2)CC(c2nccs2)NS1(=O)=O (centres unmarked) | 1000 to 5000 |
| Cc1cnc(C2CC(C(=O)Nc3ccc(F)c(Cl)c3)N(C)S(=O)(=O)N2)s1 (centres unmarked) | < 1000 |
| Cc1cnc([C@H]2C[C@@H](C(=O)Nc3ccc(F)c(Cl)c3)N(C)S(=O)(=O)N2)s1 | < 1000 |
| Cc1cnc([C@@H]2C[C@H](C(=O)Nc3ccc(F)c(Cl)c3)N(C)S(=O)(=O)N2)s1 | > 5000 |
| CN1C(C(=O)Nc2ccc(F)c(Cl)c2)CC(c2ncc(-c3ccccc3)s2)NS1(=O)=O (centres unmarked) | < 1000 |
| CN1[C@H](C(=O)Nc2ccc(F)c(Cl)c2)C[C@H](c2ncc(-c3ccccc3)s2)NS1(=O)=O | < 1000 |
| CN1[C@@H](C(=O)Nc2ccc(F)c(Cl)c2)C[C@@H](c2ncc(-c3ccccc3)s2)NS1(=O)=O | 1000 to 5000 |
| CN1C(C(=O)Nc2ccc(F)cc2)CC(c2cccs2)NS1(=O)=O (racemic) [HBV-CSU-007, Cis-N-(4-Fluorophenyl)-2-methyl-5-(thiophen-2-yl)-1,2,6-thiadiazinane-3-carboxamide 1,1-dioxide] | < 1000 |
| CN1C(C(=O)Nc2cccc(Cl)c2)CC(c2cccs2)NS1(=O)=O (racemic) [HBV-CSU-010, Cis-N-(3-chlorophenyl)-2-methyl-5-(thiophen-2-yl)-1,2,6-thiadiazinane-3-carboxamide 1,1-dioxide] | < 1000 |
| Cc1cccc(NC(=O)C2CC(c3cccs3)NS(=O)(=O)N2C)c1 (racemic) [HBV-CSU-013, Cis-2-Methyl-5-(thiophen-2-yl)-N-(m-tolyl)-1,2,6-thiadiazinane-3-carboxamide 1,1-dioxide] | < 1000 |
| CN1C(C(=O)Nc2ccc(F)c(Br)c2)CC(c2cccs2)NS1(=O)=O (racemic) [HBV-CSU-016, Cis-N-(3-Bromo-4-fluorophenyl)-2-methyl-5-(thiophen-2-yl)-1,2,6-thiadiazinane-3-carboxamide 1,1-dioxide] | < 1000 |
| CN1C(C(=O)Nc2cccc(C#N)c2)CC(c2cccs2)NS1(=O)=O (racemic) [HBV-CSU-020, Cis-N-(3-cyanophenyl)-2-methyl-5-(thiophen-2-yl)-1,2,6-thiadiazinane-3-carboxamide 1,1-dioxide] | < 1000 |
| CCN1C(C(=O)Nc2ccc(F)c(Cl)c2)CC(c2cccs2)NS1(=O)=O (racemic) [HBV-CSU-024, Cis-N-(3-chloro-4-fluorophenyl)-2-ethyl-5-(thiophen-2-yl)-1,2,6-thiadiazinane-3-carboxamide 1,1-dioxide] | < 1000 |
| COCCN1C(C(=O)Nc2ccc(F)c(Cl)c2)CC(c2cccs2)NS1(=O)=O (racemic) [HBV-CSU-025, Cis-N-(3-chloro-4-fluorophenyl)-2-(2-methoxyethyl)-5-(thiophen-2-yl)-1,2,6-thiadiazinane-3-carboxamide 1,1-dioxide] | < 1000 |
| CN1C(C(=O)Nc2ccc(F)c(Cl)c2)CC(c2nccs2)NS1(=O)=O (racemic) [HBV-CSU-027, Cis-N-(3-chloro-4-fluorophenyl)-2-methyl-5-(thiazol-2-yl)-1,2,6-thiadiazinane-3-carboxamide 1,1-dioxide] | < 1000 |
| CN1C(C(=O)Nc2ccc(F)c(Cl)c2)CC(c2ccccn2)NS1(=O)=O (racemic) [HBV-CSU-031, Cis-N-(3-Chloro-4-fluorophenyl)-2-methyl-5-(pyridin-2-yl)-1,2,6-thiadiazinane-3-carboxamide 1,1-dioxide] | < 1000 |
| CN1C(C(=O)Nc2cc(F)c(F)c(F)c2)CC(c2cccs2)NS1(=O)=O (racemic) [HBV-CSU-036, Cis-2-Methyl-5-(thiophen-2-yl)-N-(3,4,5-trifluorophenyl)-1,2,6-thiadiazinane-3-carboxamide 1,1-dioxide] | < 1000 |
| CN1C(C(=O)Nc2ccc(F)c(C#N)c2)CC(c2cccs2)NS1(=O)=O (racemic) [HBV-CSU-045, Cis-N-(3-cyano-4-fluorophenyl)-2-methyl-5-(thiophen-2-yl)-1,2,6-thiadiazinane-3-carboxamide 1,1-dioxide] | < 1000 |
| COCCN1C(C(=O)Nc2ccc(F)c(Cl)c2)CC(c2nccs2)NS1(=O)=O (racemic) [HBV-CSU-058, Cis-N-(3-chloro-4-fluorophenyl)-2-(2-methoxyethyl)-5-(thiazol-2-yl)-1,2,6-thiadiazinane-3-carboxamide 1,1-dioxide] | < 1000 |
| COCCN1C(C(=O)Nc2ccc(F)c(Br)c2)CC(c2nccs2)NS1(=O)=O (racemic) [HBV-CSU-059, Cis-N-(3-bromo-4-fluorophenyl)-2-(2-methoxyethyl)-5-(thiazol-2-yl)-1,2,6-thiadiazinane-3-carboxamide 1,1-dioxide] | < 1000 |
| CC(C)(C)OCCN1C(C(=O)Nc2ccc(F)c(Cl)c2)CC(c2nccs2)NS1(=O)=O (racemic) [HBV-CSU-071, Cis-2-(2-(tert-Butoxy)ethyl)-N-(3-chloro-4-fluorophenyl)-5-(thiazol-2-yl)-1,2,6-thiadiazinane-3-carboxamide 1,1-dioxide] | 1000 to 5000 |
| O=C(Nc1ccc(F)c(Cl)c1)C1CC(c2nccs2)NS(=O)(=O)N1CCOC(F)(F)F (racemic) [HBV-CSU-072, Cis-N-(3-Chloro-4-fluorophenyl)-5-(thiazol-2-yl)-2-(2-(trifluoromethoxy)ethyl)-1,2,6-thiadiazinane-3-carboxamide 1,1-dioxide] | < 1000 |
| CS(=O)(=O)CCN1C(C(=O)Nc2ccc(F)c(Cl)c2)CC(c2nccs2)NS1(=O)=O (racemic) [HBV-CSU-073, Cis-N-(3-Chloro-4-fluorophenyl)-2-(2-(methylsulfonyl)ethyl)-5-(thiazol-2-yl)-1,2,6-thiadiazinane-3-carboxamide 1,1-dioxide] | > 5000 |
| CN(C)CCN1C(C(=O)Nc2ccc(F)c(Cl)c2)CC(c2nccs2)NS1(=O)=O (racemic) [HBV-CSU-074, Cis-N-(3-Chloro-4-fluorophenyl)-2-(2-(dimethylamino)ethyl)-5-(thiazol-2-yl)-1,2,6-thiadiazinane-3-carboxamide 1,1-dioxide] | > 5000 |
| O=C(Nc1ccc(F)c(Cl)c1)C1CC(c2nccs2)NS(=O)(=O)N1CCCO (racemic) [HBV-CSU-078, Cis-N-(3-Chloro-4-fluorophenyl)-2-(3-hydroxypropyl)-5-(thiazol-2-yl)-1,2,6-thiadiazinane-3-carboxamide 1,1-dioxide] | 1000 to 5000 |
| O=C(Nc1ccc(F)c(Cl)c1)C1CC(c2nccs2)NS(=O)(=O)N1CC1CCCO1 (racemic) [HBV-CSU-079-Rac-A, Cis-N-(3-Chloro-4-fluorophenyl)-2-((tetrahydrofuran-2-yl)methyl)-5-(thiazol-2-yl)-1,2,6-thiadiazinane-3-carboxamide 1,1-dioxide] | < 1000 |
| O=C(Nc1ccc(F)c(Cl)c1)C1CC(c2nccs2)NS(=O)(=O)N1CCN1CCOCC1 (racemic) [HBV-CSU-082, Cis-N-(3-Chloro-4-fluorophenyl)-2-(2-morpholinoethyl)-5-(thiazol-2-yl)-1,2,6-thiadiazinane-3-carboxamide 1,1-dioxide] | > 5000 |
| COC(C)(C)CCN1C(C(=O)Nc2ccc(F)c(Cl)c2)CC(c2nccs2)NS1(=O)=O (racemic) [HBV-CSU-083, Cis-N-(3-Chloro-4-fluorophenyl)-2-(3-methoxy-3-methylbutyl)-5-(thiazol-2-yl)-1,2,6-thiadiazinane-3-carboxamide 1,1-dioxide] | > 5000 |
| O=C(Nc1ccc(F)c(Cl)c1)C1CC(c2nccs2)NS(=O)(=O)N1CCc1c[nH]nn1 (racemic) [HBV-CSU-092, Cis-2-(2-(1H-1,2,3-Triazol-4-yl)ethyl)-N-(3-chloro-4-fluorophenyl)-5-(thiazol-2-yl)-1,2,6-thiadiazinane-3-carboxamide 1,1-dioxide] | 1000 to 5000 |

Source: US11078170B2 (Assembly Biosciences, Inc., priority 2017, dated 2021)
